Laboratory results reported in US9782484B2, “Method for producing a composite organic compound powder for medical use” (ACTIVUS PHARMA CO., LTD., priority 2008, dated 2017).

Experiments:
[1] = Average particle diameter of dried powder converted from BET specific surface area; assay type: physicochemical; details: starting organic compound powder, Table 1 and text
Procedure: According to the present invention, the “average particle diameter converted from the BET specific surface area” is calculated by converting a value of the specific surface area measured by the BET flow method (one-point type) to the diameter of a hypothetical spherical particle. The following formula 1 is a conversion formula for converting a value of the specific surface area to the diameter. Here, D is an average particle diameter, ρ is a solid density, S is a specific surface area, and α is a shape factor. α is 6 for spherical particles. D=α/(ρ·S) (formula 1)
The BET flow method is preferably a method for measuring the specific surface area by the following procedure. A mixed gas of nitrogen and helium is flowed into a cell in which a sample to be measured is placed, followed by cooling the sample with liquid nitrogen. Then, only nitrogen gas adsorbs to the surface of the sample. Subsequently, when the cell is returned to ordinary temperature, the desorption of the gas occurs. During the desorption of gas, the proportion of nitrogen gas in the mixed gas flowing through one detector becomes larger than the proportion of nitrogen gas flowing through another detector. The difference between signals from these detectors represents the adsorption amount, enabling the measurement of the specific surface area.
Fine-pulverizing experiments are first described in each of which a carboxyvinyl polymer was added. The average particle diameter before and after fine-pulverizing for a dried powder was calculated by converting, by the above-described formula 1, the BET specific surface area measured using a BET type specific surface area analyzer (Macsorb model […], from Mountech Co., Ltd.). The observation of the powder before and after fine-pulverizing was carried out using a scanning electron microscope (model SEM VE-7800, from Keyence Corporation).
Fine-pulverizing experiments will now be described in each of which a carboxyvinyl polymer and a lecithin were added. The average particle diameter before and after fine-pulverizing for a powder was measured using a BET type specific surface area analyzer (Macsorb model HM-1201, from Mountech Co., Ltd.). The particle diameter of particles in a suspension was measured using a particle size distribution analyzer (Delsa Nano S, from Beckman Coulter, Inc.). “D50” is the diameter of a particle having an integrated value of 50% as counted in order of decreasing particle size (or in order of increasing particle size) (called “median particle diameter”) in the size distribution. “D90” is the diameter of a particle having an integrated value of 90% as counted in order of increasing particle size (called “90% median diameter”) in the size distribution. “Dv” is the volume average diameter (called “average particle diameter”). […]

[2] = Size distribution of particles in suspension by particle size distribution analyzer (Delsa Nano S); assay type: physicochemical; details: starting compound suspended with 0.03% sodium lauryl sulfate
Procedure: Fine-pulverizing experiments will now be described in each of which a carboxyvinyl polymer and a lecithin were added. The average particle diameter before and after fine-pulverizing for a powder was measured using a BET type specific surface area analyzer (Macsorb model HM-1201, from Mountech Co., Ltd.). The particle diameter of particles in a suspension was measured using a particle size distribution analyzer (Delsa Nano S, from Beckman Coulter, Inc.). “D50” is the diameter of a particle having an integrated value of 50% as counted in order of decreasing particle size (or in order of increasing particle size) (called “median particle diameter”) in the size distribution. “D90” is the diameter of a particle having an integrated value of 90% as counted in order of increasing particle size (called “90% median diameter”) in the size distribution. “Dv” is the volume average diameter (called “average particle diameter”).
An experiment of improving a collection efficiency by addition of a lecithin to fine-pulverized particles will now be described. Unless otherwise stated, the average particle diameter of particles was measured using a BET type specific surface area analyzer (Macsorb model HM-1201, from Mountech Co., Ltd.). The particle diameter of particles in a suspension was measured using a particle size distribution analyzer (Delsa Nano S, from Beckman Coulter, Inc.). “D50” is the diameter of a particle having an integrated value of 50% as counted in order of decreasing particle size (or in order of increasing particle size) (called “median particle diameter”) in the size distribution. “D90” is the diameter of a particle having an integrated value of 90% as counted in order of increasing particle size (called “90% median diameter”) in the size distribution. “Dv” is the volume average diameter (called “average particle diameter”).

Average Particle Diameter before Fine-pulverizing [1] | 90% median diameter (D90) before fine-pulverizing [2] | average particle diameter (Dv) before fine-pulverizing [2] | median particle diameter (D50) before fine-pulverizing [2] | Structure (SMILES)
7,850 nm | – | – | – | CCC(=O)O[C@]1(C(=O)SCF)[C@H](C)C[C@H]2[C@@H]3C[C@H](F)C4=CC(=O)C=C[C@]4(C)[C@@]3(F)[C@@H](O)C[C@@]21C [fluticasone propionate]
– | 69,371 nm | 60,371 nm | 52,997 nm | Nc1nc2c(ncn2COCCO)c(=O)[nH]1 [aciclovir]
– | 15,181 nm | 13,423 nm | 11,843 nm | C[C@@H]1[C@H](O)[C@@H](C)/C=C/C=C/C=C/C=C/C=C/C=C/C=C/[C@H](O[C@@H]2O[C@H](C)[C@@H](O)[C@H](N)[C@@H]2O)C[C@@H]2O[C@](O)(C[C@@H](O)C[C@@H](O)[C@H](O)CC[C@@H](O)C[C@@H](O)CC(=O)O[C@H]1C)C[C@H](O)[C@H]2C(=O)O [amphotericin B]
34,000 nm | – | – | – | O=C(O)Cc1ccc(-c2ccccc2)cc1 [felbinac]
10,900 nm | – | – | – | Clc1ccc(COC(Cn2ccnc2)c2ccc(Cl)cc2Cl)c(Cl)c1 (stereo not shown) [miconazole]
3,960 nm | – | – | – | COc1ccc2c(c1)c(CC(=O)O)c(C)n2C(=O)c1ccc(Cl)cc1 [indomethacin]
